Assay results taken from patent publication US20140065649A1, “TEST SYSTEMS AND METHODS FOR IDENTIFYING AND CHARACTERISING LIPID LOWERING DRUGS” (Sanofi, priority 2011, published 2014).
Entries after “also recorded” stand apart in the source; their conditions may differ.

Legend:
humans = conditions: human phase 1 study, interim analysis, single i.v. administration; cited from earlier work
hPCSK9 = hPCSK9 (Homo sapiens, UniProt Q8NBP7); conditions: cited from earlier work
[1] = system: hepatic low density lipoprotein receptor (LDLR) protein; test: Study 2: hepatic LDLR levels by Western blot; format: in vivo, Mesocricetus auratus; conditions: Study 2, Western blot; 316P 10 mg/kg, atorvastatin 2×20 mg/kg
[2] = Study 1: serum 316P levels by sandwich ELISA; format: in vivo, Mesocricetus auratus; conditions: Study 1, 24-hour time point, 1, 3, and 10 mg/kg
[3] = system: normolipidemic male Syrian hamsters; conditions: Study 1, single s.c. 1, 3, or 10 mg/kg, data not shown
[4] = target: hPCSK9 D238 mutated (D238R) (Homo sapiens, UniProt Q8NBP7, D238R); conditions: cited from earlier work
Sequence of hPCSK9 D238 mutated (D238R) (Q8NBP7 153-692 D238R): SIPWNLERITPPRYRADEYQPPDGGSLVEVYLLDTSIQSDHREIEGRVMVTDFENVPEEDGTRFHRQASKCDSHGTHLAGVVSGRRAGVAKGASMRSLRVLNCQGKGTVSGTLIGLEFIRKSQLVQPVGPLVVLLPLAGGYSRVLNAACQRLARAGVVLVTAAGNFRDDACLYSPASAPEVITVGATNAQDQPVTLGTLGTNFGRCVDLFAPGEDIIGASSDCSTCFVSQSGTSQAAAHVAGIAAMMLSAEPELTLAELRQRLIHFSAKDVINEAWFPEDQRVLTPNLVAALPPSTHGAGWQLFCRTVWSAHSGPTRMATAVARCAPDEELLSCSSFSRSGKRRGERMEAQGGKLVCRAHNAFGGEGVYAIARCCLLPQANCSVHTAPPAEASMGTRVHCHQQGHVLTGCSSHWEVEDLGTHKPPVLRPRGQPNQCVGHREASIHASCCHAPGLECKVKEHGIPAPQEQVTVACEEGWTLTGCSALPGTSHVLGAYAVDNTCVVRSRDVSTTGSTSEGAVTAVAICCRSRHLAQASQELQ

[5] = system: normolipidemic male Syrian hamsters; conditions: in vivo, sc
Method: (§1) Male Syrian hamsters (strain RjHan: AURA in Study 1 and Bio™ F1B in Study 2), weighing between 90 and 100 g, were purchased from Janvier, Germany, and were allowed to acclimatize for a period of 7 days before entering the study.
(§2) The investigation was divided into 2 studies. […] For each study, body weight and food consumption (weight changes in chow) were measured once a week, starting 1 week before dosing. […] In Study 1, samples were taken on Days −6, 1, 7, 14, 21, and 28; in Study 2, samples were taken on Days −7, 0, 3, and 7. Serum was obtained after centrifugation using Serum-Gel® tubes (Sarstedt, Nümbrecht, Germany).
(§3) At the end of each study, animals were sacrificed in a nonfasted state and liver was immediately weighed and shock frozen on dry ice.
(§4) All data are expressed as means±standard error of the mean (SEM) and were tested for normality and variance homogeneity before analysis. […] In Study 1, the vehicle-treated control versus treatment-naive control group was analyzed separately using 2-way ANOVA followed by the Dunnett test. A P value of ≦0.05 was considered statistically significant. Food consumption and safety parameters (AST, ALT, AP, and CK) were descriptively evaluated.

[6] = system: PCSK9-mediated down-regulation of LDL uptake via LDLR in HepG2 cells; conditions: cited from earlier work
PCSK9 = conditions: in hamsters; cited from earlier work
[7] = system: normolipidemic male Syrian hamsters; test: Study 1: serum lipids after single s.c. injection in normolipidemic hamsters; format: in vivo, Mesocricetus auratus; conditions: for decrease in TC: Day 7
[8] = system: normolipidemic male Syrian hamsters; test: Study 2: safety parameters, body weight, liver weight and liver lipids
Method: as §1, §2, §3, §4

[9] = system: normolipidemic male Syrian hamsters; test: Study 2: serum lipids, atorvastatin twice daily with and without single s.c. 316P in normolipidemic hamsters; format: in vivo, Mesocricetus auratus
[10] = system: human HepG2 or Huh7 cells; conditions: cited from earlier work
dyslipidemic hamsters = conditions: cited from earlier work
[11] = D238 mutated vs unmutated hPCSK9
[12] = Study 2, 316P single s.c. 10 mg/kg alone, sustained until Day 7
[13] = Study 2, atorvastatin alone 10 or 20 mg/kg p.o. twice daily, after 7 days

Sequence of hPCSK9 (Q8NBP7 153-692): as the sequence (Q8NBP7 153-692 D238R) above, with R86D counted along it

316P: fully human monoclonal anti-PCSK9 antibody comprising HCVR SEQ ID NO: 9 and LCVR SEQ ID NO: 10 [Antibody 316P]
LDL-C reduction (humans): exceeded 60%
duration of LDL-C reduction (humans): 30 days
binding affinity for PCSK9 (hPCSK9; in humans): high binding affinity
T1/2 (hPCSK9; unmutated hPCSK9): ~37 min
Kd (hPCSK9; unmutated hPCSK9, read-out: KD (binding affinity)): ~1 nM
level of hepatic LDLR expression compared with the PBS control groups [1]: 149%
level of hepatic LDLR protein versus PBS control [1]: 1.5 fold
serum 316P concentration vs dose [2]: proportional to theoretical dosing levels
effects on safety parameters, relative liver weight, hepatic cholesterol, TG, phospholipid concentration [3]: no biologically relevant effects
decrease of T1/2 [4, 11]: > 30 fold
reduction in binding affinity [4, 11]: > 400 fold
T1/2 ([4]; D238 mutated): ~1 min
Kd ([4]; D238 mutated, read-out: KD (binding affinity)): ~410 nM
effects on relative liver weight, hepatic cholesterol, TG or phospholipid concentration [5]: no clinically relevant effects
effect on PCSK9-mediated down-regulation of LDL uptake via LDLR [6]: antagonizes
binding affinity for PCSK9 (PCSK9): high binding affinity
reduction in HDL-C ([7]; Study 1, data not shown): statistically significant but less pronounced than the effect on LDL-C
serum TG levels ([7]; Study 1, every dose throughout the study): remained relatively constant
decrease in TC ([7]; Study 1, single s.c. 1 mg/kg): 9%
maximal effect on LDL-C (reduction) ([7]; Study 1, single s.c. 1 mg/kg, after Day 1, vs PBS control): 17%
decrease in TC ([7]; Study 1, single s.c. 3 mg/kg): 17%
maximal effect on LDL-C (reduction) ([7]; Study 1, single s.c. 3 mg/kg, after Day 7, vs PBS control): 27%
decrease in TC ([7]; Study 1, single s.c. 10 mg/kg): 28%
maximal effect on LDL-C (reduction) ([7]; Study 1, single s.c. 10 mg/kg, after Day 7, vs PBS control): 59%
duration of dose-dependent decrease in LDL-C (TC and LDL-C) ([7]; Study 1, single s.c. 1, 3, or 10 mg/kg): more than 2 weeks
day on which LDL-C levels reach PBS control-treated levels (0% reduction) ([7]; Study 1, single s.c. injection): 28 days
HDL-C levels ([7]; highest dose 10 mg/kg, data not shown): significant reduction
tolerability ([8]; Study 2): well tolerated
reduction in HDL-C ([9]; Study 2, 316P 10 mg/kg (groups not specified), data not shown): statistically significant but less pronounced than the effect on LDL-C
effect on serum LDL-C [9, 12]: potent effect
effect on serum TC [9, 12]: potent effect

CC(C)c1c(C(=O)Nc2ccccc2)c(-c2ccccc2)c(-c2ccc(F)cc2)n1CC[C@@H](O)C[C@@H](O)CC(=O)O [atorvastatin]
ALT levels ([8]; Study 2, atorvastatin 2×10 or 20 mg/kg): slight, clinically insignificant increase; also recorded: biologically relevant increase
reduction in TG levels ([9]; Study 2, atorvastatin 2×20 mg/kg, after 7 days of treatment): 23%
reduction of serum TG levels ([9]; Study 2, atorvastatin alone 10 mg/kg or 20 mg/kg p.o. twice daily, after 7 days): 23%
effect on serum HDL-C [9, 13]: no significant effect
effect on serum LDL-C [9, 13]: no significant effect
effect on serum TC [9, 13]: no significant effect

CC(C)c1nc(N(C)S(C)(=O)=O)nc(-c2ccc(F)cc2)c1/C=C/[C@@H](O)C[C@@H](O)CC(=O)O [rosuvastatin]
effect on the level of HNF1 alpha [10]: no appreciable effect
increase in LDLR mRNA and protein [10]: ≈ 2 fold
increase in PCSK9 mRNA and protein [10]: ≈ 3 fold
hepatic LDLR levels (dyslipidemic hamsters): reduced
serum LDL-C levels (dyslipidemic hamsters): slightly increased
